This is an account of results in ChEMBL document CHEMBL6092162, “Identification of novel and potent triazoles targeting CYP51 for antifungal: Design, synthesis, and biological study” (Eur J Med Chem, 2024).

Molecules are shown by their SMILES. Values after ≈ are worked out from the molar mass of the structure shown.

One experiment deals with Candida albicans. Nature of the experiment: Antifungal activity against Candida albicans SC5314 assessed as inhibition of fungal growth by CLSI M27-A3 guidelines based method. In kind it is functional.
Details: not given
The MIC80 is an inhibitory concentration at the 80% level, which refers to growth in some studies and to a panel of isolates in others. As to `CN(Cc1ccc(N2CCN(Cc3cc(Cl)ccc3Br)CC2)cc1)CC(O)(Cn1cncn1)c1ccc(F)cc1F` (stereo unspecified), the MIC80 stood at 0.013 mg/L (≈ 0.0201 µM).
Consider `COc1ccc(CN2CCN(c3ccc(CN(C)CC(O)(Cn4cncn4)c4ccc(F)cc4F)cc3)CC2)cc1` (stereo unspecified), for which the MIC80 came to 0.5 mg/L (≈ 0.889 µM).
As to `CC(C)c1ccc(CN2CCN(c3ccc(CN(C)CC(O)(Cn4cncn4)c4ccc(F)cc4F)cc3)CC2)cc1` (stereo unspecified), the MIC80 stood at 0.013 mg/L (≈ 0.0226 µM).
With `CN(Cc1ccc(N2CCN(Cc3ccc(I)cc3)CC2)cc1)CC(O)(Cn1cncn1)c1ccc(F)cc1F` (stereo unspecified), the MIC80 was determined as 0.025 mg/L (≈ 0.038 µM).
On to `CC(C)N1CCN(c2ccc(CN(C)CC(O)(Cn3cncn3)c3ccc(F)cc3F)cc2)CC1` (stereo unspecified), for which the MIC80 worked out at 4 mg/L (≈ 8.25 µM).
On the same count and under the same terms, for `CN(Cc1ccc(N2CCN(Cc3ccc(Br)cc3Br)CC2)cc1)CC(O)(Cn1cncn1)c1ccc(F)cc1F` (stereo unspecified) the value was 0.013 mg/L (≈ 0.0188 µM).
Consider `CN(Cc1ccc(N2CCN(Cc3c(Cl)cccc3Br)CC2)cc1)CC(O)(Cn1cncn1)c1ccc(F)cc1F` (stereo unspecified), for which the MIC80 amounted to 0.013 mg/L (≈ 0.0201 µM).

Another experiment relates to Candida albicans. The experiment is described as follows: Antifungal activity against Candida albicans GIM 2.194 assessed as inhibition of fungal growth by CLSI M27-A3 guidelines based method. In kind it is functional.
Details: not given
`CN(Cc1ccc(N2CCN(Cc3cc(Cl)ccc3Br)CC2)cc1)CC(O)(Cn1cncn1)c1ccc(F)cc1F` (stereo unspecified): the MIC80 stood at 0.013 mg/L (≈ 0.0201 µM).
`COc1ccc(CN2CCN(c3ccc(CN(C)CC(O)(Cn4cncn4)c4ccc(F)cc4F)cc3)CC2)cc1` (stereo unspecified): the MIC80 stood at 0.1 mg/L (≈ 0.178 µM).
Take `CC(C)c1ccc(CN2CCN(c3ccc(CN(C)CC(O)(Cn4cncn4)c4ccc(F)cc4F)cc3)CC2)cc1` (stereo unspecified): the MIC80 turned out to be 0.013 mg/L (≈ 0.0226 µM).
On to `CN(Cc1ccc(N2CCN(Cc3ccc(I)cc3)CC2)cc1)CC(O)(Cn1cncn1)c1ccc(F)cc1F` (stereo unspecified), for which the MIC80 turned out to be 0.013 mg/L (≈ 0.0197 µM).
Consider `CC(C)N1CCN(c2ccc(CN(C)CC(O)(Cn3cncn3)c3ccc(F)cc3F)cc2)CC1` (stereo unspecified), for which the MIC80 worked out at 8 mg/L (≈ 16.5 µM).
As to `CN(Cc1ccc(N2CCN(Cc3ccc(Br)cc3Br)CC2)cc1)CC(O)(Cn1cncn1)c1ccc(F)cc1F` (stereo unspecified), the MIC80 came to 0.013 mg/L (≈ 0.0188 µM).
Consider `CN(Cc1ccc(N2CCN(Cc3c(Cl)cccc3Br)CC2)cc1)CC(O)(Cn1cncn1)c1ccc(F)cc1F` (stereo unspecified), for which the MIC80 was 0.025 mg/L (≈ 0.0387 µM).

In another experiment the test system is Candida tropicalis. The experiment is described as follows: Antifungal activity against Candida tropicalis GIM 2.183 assessed as inhibition of fungal growth by CLSI M27-A3 guidelines based method. Type of experiment: functional.
Details: not given
With `CN(Cc1ccc(N2CCN(Cc3cc(Cl)ccc3Br)CC2)cc1)CC(O)(Cn1cncn1)c1ccc(F)cc1F` (stereo unspecified), the MIC80 is 0.006 mg/L (≈ 0.00929 µM).
Consider `COc1ccc(CN2CCN(c3ccc(CN(C)CC(O)(Cn4cncn4)c4ccc(F)cc4F)cc3)CC2)cc1` (stereo unspecified), for which the MIC80 amounted to 0.2 mg/L (≈ 0.355 µM).
The same measure, in the same setting: for `CC(C)c1ccc(CN2CCN(c3ccc(CN(C)CC(O)(Cn4cncn4)c4ccc(F)cc4F)cc3)CC2)cc1` (stereo unspecified) the value was 0.25 mg/L (≈ 0.435 µM).
On to `CN(Cc1ccc(N2CCN(Cc3ccc(I)cc3)CC2)cc1)CC(O)(Cn1cncn1)c1ccc(F)cc1F` (stereo unspecified), for which the MIC80 came out at 0.05 mg/L (≈ 0.0759 µM).
The same measure, in the same setting: next, `CC(C)N1CCN(c2ccc(CN(C)CC(O)(Cn3cncn3)c3ccc(F)cc3F)cc2)CC1` (stereo unspecified): 2 mg/L (≈ 4.13 µM); `CN(Cc1ccc(N2CCN(Cc3ccc(Br)cc3Br)CC2)cc1)CC(O)(Cn1cncn1)c1ccc(F)cc1F` (stereo unspecified): 0.006 mg/L (≈ 0.00869 µM).
As to `CN(Cc1ccc(N2CCN(Cc3c(Cl)cccc3Br)CC2)cc1)CC(O)(Cn1cncn1)c1ccc(F)cc1F` (stereo unspecified), the MIC80 worked out at 0.006 mg/L (≈ 0.00929 µM).

The subject of the next experiment is Candida parapsilosis. The experiment is described as follows: Antifungal activity against Candida parapsilosis GIM 2.190 assessed as inhibition of fungal growth by CLSI M27-A3 guidelines based method. In kind it is functional. The following applies: Lodderomyces parapsilosis.
`CN(Cc1ccc(N2CCN(Cc3cc(Cl)ccc3Br)CC2)cc1)CC(O)(Cn1cncn1)c1ccc(F)cc1F` (stereo unspecified): the MIC80 was determined as 0.006 mg/L (≈ 0.00929 µM).
With `COc1ccc(CN2CCN(c3ccc(CN(C)CC(O)(Cn4cncn4)c4ccc(F)cc4F)cc3)CC2)cc1` (stereo unspecified), the MIC80 stood at 0.1 mg/L (≈ 0.178 µM).
Turning to `CC(C)c1ccc(CN2CCN(c3ccc(CN(C)CC(O)(Cn4cncn4)c4ccc(F)cc4F)cc3)CC2)cc1` (stereo unspecified), the MIC80 stood at 0.013 mg/L (≈ 0.0226 µM).
Consider `CN(Cc1ccc(N2CCN(Cc3ccc(I)cc3)CC2)cc1)CC(O)(Cn1cncn1)c1ccc(F)cc1F` (stereo unspecified), for which the MIC80 turned out to be 0.1 mg/L (≈ 0.152 µM).
Consider `CC(C)N1CCN(c2ccc(CN(C)CC(O)(Cn3cncn3)c3ccc(F)cc3F)cc2)CC1` (stereo unspecified), for which the MIC80 is 4 mg/L (≈ 8.25 µM).
As for `CN(Cc1ccc(N2CCN(Cc3ccc(Br)cc3Br)CC2)cc1)CC(O)(Cn1cncn1)c1ccc(F)cc1F` (stereo unspecified), the MIC80 is 0.006 mg/L (≈ 0.00869 µM).
Take `CN(Cc1ccc(N2CCN(Cc3c(Cl)cccc3Br)CC2)cc1)CC(O)(Cn1cncn1)c1ccc(F)cc1F` (stereo unspecified): the MIC80 came to 0.006 mg/L (≈ 0.00929 µM).

The next experiment relates to Nakaseomyces glabratus. The experiment is described as follows: Antifungal activity against Candida glabrata assessed as inhibition of fungal growth by CLSI M27-A3 guidelines based method. In kind it is functional.
Details: not given
`CN(Cc1ccc(N2CCN(Cc3cc(Cl)ccc3Br)CC2)cc1)CC(O)(Cn1cncn1)c1ccc(F)cc1F` (stereo unspecified): the MIC80 is 0.2 mg/L (≈ 0.31 µM).
For the molecule `COc1ccc(CN2CCN(c3ccc(CN(C)CC(O)(Cn4cncn4)c4ccc(F)cc4F)cc3)CC2)cc1` (stereo unspecified), the MIC80 was found to be 3.2 mg/L (≈ 5.69 µM).
As to `CC(C)c1ccc(CN2CCN(c3ccc(CN(C)CC(O)(Cn4cncn4)c4ccc(F)cc4F)cc3)CC2)cc1` (stereo unspecified), the MIC80 came out at 0.4 mg/L (≈ 0.696 µM).
For the molecule `CN(Cc1ccc(N2CCN(Cc3ccc(I)cc3)CC2)cc1)CC(O)(Cn1cncn1)c1ccc(F)cc1F` (stereo unspecified), the MIC80 came out at 0.2 mg/L (≈ 0.304 µM).
On to `CC(C)N1CCN(c2ccc(CN(C)CC(O)(Cn3cncn3)c3ccc(F)cc3F)cc2)CC1` (stereo unspecified), for which the MIC80 is > 32 mg/L.
For the molecule `CN(Cc1ccc(N2CCN(Cc3ccc(Br)cc3Br)CC2)cc1)CC(O)(Cn1cncn1)c1ccc(F)cc1F` (stereo unspecified), the MIC80 was 0.1 mg/L (≈ 0.145 µM).
In the case of `CN(Cc1ccc(N2CCN(Cc3c(Cl)cccc3Br)CC2)cc1)CC(O)(Cn1cncn1)c1ccc(F)cc1F` (stereo unspecified), the MIC80 is 0.2 mg/L (≈ 0.31 µM).

For another experiment, the system named is Pichia kudriavzevii. Nature of the experiment: Antifungal activity against Candida krusei GIM 2.1 assessed as inhibition of fungal growth by CLSI M27-A3 guidelines based method. In kind it is functional.
Details: not given
For the molecule `CN(Cc1ccc(N2CCN(Cc3cc(Cl)ccc3Br)CC2)cc1)CC(O)(Cn1cncn1)c1ccc(F)cc1F` (stereo unspecified), the MIC80 was found to be 0.2 mg/L (≈ 0.31 µM).
For `COc1ccc(CN2CCN(c3ccc(CN(C)CC(O)(Cn4cncn4)c4ccc(F)cc4F)cc3)CC2)cc1` (stereo unspecified), the MIC80 amounted to 0.8 mg/L (≈ 1.42 µM).
With `CN(Cc1ccc(N2CCN(Cc3ccc(I)cc3)CC2)cc1)CC(O)(Cn1cncn1)c1ccc(F)cc1F` (stereo unspecified), the MIC80 was determined as 0.1 mg/L (≈ 0.152 µM).
On to `CC(C)N1CCN(c2ccc(CN(C)CC(O)(Cn3cncn3)c3ccc(F)cc3F)cc2)CC1` (stereo unspecified), for which the MIC80 was > 32 mg/L.
With `CN(Cc1ccc(N2CCN(Cc3ccc(Br)cc3Br)CC2)cc1)CC(O)(Cn1cncn1)c1ccc(F)cc1F` (stereo unspecified), the MIC80 amounted to 0.1 mg/L (≈ 0.145 µM).
In the case of `CN(Cc1ccc(N2CCN(Cc3c(Cl)cccc3Br)CC2)cc1)CC(O)(Cn1cncn1)c1ccc(F)cc1F` (stereo unspecified), the MIC80 was 0.1 mg/L (≈ 0.155 µM).

The next experiment deals with Cryptococcus neoformans. The experiment is described as follows: Antifungal activity against Cryptococcus neoformans CGMCC 2.3161 assessed as inhibition of fungal growth by CLSI M27-A3 guidelines based method.
Details: not given
Type of experiment: functional.
With `CN(Cc1ccc(N2CCN(Cc3cc(Cl)ccc3Br)CC2)cc1)CC(O)(Cn1cncn1)c1ccc(F)cc1F` (stereo unspecified), the MIC80 was 0.1 mg/L (≈ 0.155 µM).
For the molecule `COc1ccc(CN2CCN(c3ccc(CN(C)CC(O)(Cn4cncn4)c4ccc(F)cc4F)cc3)CC2)cc1` (stereo unspecified), the MIC80 is 0.8 mg/L (≈ 1.42 µM).
On the same count and under the same terms, for `CC(C)c1ccc(CN2CCN(c3ccc(CN(C)CC(O)(Cn4cncn4)c4ccc(F)cc4F)cc3)CC2)cc1` (stereo unspecified) the value was 0.1 mg/L (≈ 0.174 µM).
Same read-out and setting: for `CN(Cc1ccc(N2CCN(Cc3ccc(I)cc3)CC2)cc1)CC(O)(Cn1cncn1)c1ccc(F)cc1F` (stereo unspecified) the value was 0.1 mg/L (≈ 0.152 µM).
On the same count and under the same terms, next, `CC(C)N1CCN(c2ccc(CN(C)CC(O)(Cn3cncn3)c3ccc(F)cc3F)cc2)CC1` (stereo unspecified): > 32 mg/L.
